Converted amounts (≈) assume the structure as drawn. “And” between values parts separate entries of the source, which are not always exact repeats. Identical values can stand only once. Like-named read-outs stand apart in the source and are kept apart here.
What was measured:
[1] = tested on: Malassezia pachydermatis ATCC 14522; assay: Broth-microdilution test and subsequent plating on agar, fungi (yeasts); type: cell-based; conditions: 2 h contact at 37° C., CFU count on agar Sabouraud
Protocol: (§1) The inoculum was set up by culturing Candida albicans ATCC 10231 and Malassezia pachydermatis ATCC 14522 in Czapek-Dox broth medium (DIFCO) for 48-72 h. On the assay day, the fungal culture was centrifuged at 1700×g for 15 min, the pellet was resuspended in phosphate buffer and submitted to shaking by the use of an electric vortex to disperse the fungal cell aggregates. The suspension was diluted until an optical density equal to an opacity of 0.5 on the McFarland turbidimetric scale was reached, which contains approximately 1-5×10^6 cell/ml (Branda J. A., Krantz A. Effectc of yeast on automated cell counting. Am J Clin Pathol., 2006:126, 248-254).
(§2) The peptides were tested for their ability to inhibit fungal growth. Fifty microliters of peptide at a concentration comprised between about 0.2 mM and about 50 mM were added in 96-well U-bottom plates containing phosphate buffer and one of the following fungi: Candida albicans ATCC 10231 and Malassezia pachydermatis ATCC 14522. After 2 h incubation at 37° C., fungi were transferred on the solid medium agar Sabouraud. As a control, fungal cultures were cultured in the absence of peptide.
(§3) The fungal suspension was put in contact for two hours with different concentrations of the peptide at the temperature of 37° C. After incubation, 20 μl were drawn from the wells of each dilution and seeded on the solid medium agar Sabouraud. The inoculum was evenly distributed on the agarized medium by means of a sterile disposable loop. After incubation for 24 h at the temperature of 37° C., counting of the fungal colonies (CFU) was performed.

[2] = tested on: Candida albicans ATCC 10231; assay: as above; type: cell-based; conditions: 2 h contact at 37° C., CFU count on agar Sabouraud
Protocol: as §1, §2, §3

[3] = tested on: Stenotrophomonas maltophilia ATCC 13637; assay: Broth-microdilution test and subsequent plating on agar, Gram-negative bacteria; type: cell-based; conditions: 2 h contact at 37° C., CFU count after 24 h
Protocol: (§4) For each bacterial strain, 3-5 morphologically similar colonies were drawn from fresh cultures, inoculated in Brain Hearth Infusion broth liquid medium and incubated at the temperature of 37° C. under shaking at 225 r.p.m. for 3-4 h. Subsequently, the bacterial suspension was centrifuged at 1000 g for 20 min and the thus obtained pellet was resuspended in phosphate buffer 10 mM. Turbidity was measured in a spectrophotometer with absorbance at 600 nm, equivalent in the range 0.08-0.13 to a concentration of about 10^8 CFU/ml. The bacterial suspension was diluted 1:100 in phosphate buffer 10 mM, and within 30 min 50 microliters of such bacterial suspension (10^6 CFU/ml) were inoculated in each well of the microtiter plate, to obtain a final bacterial concentration of about 5×10^5 CFU/ml.
(§5) Several peptides were tested for their ability to inhibit bacterial growth in liquid culture. Fifty microliters of peptide at a concentration comprised between about 0.2 mM and 50 mM were added in 96-well U-bottom plates containing liquid growth medium and one of the following bacteria: Escherichia coli ATCC 25922, P. aeruginosa ATCC 27853, Stenotrophomonas maltophilia ATCC 13637. After 2 hour incubation at 37° C., bacteria were transferred on a solid medium. As a growth control, bacterial cultures were cultured in the absence of peptides.
(§6) The bacterial suspension was put in contact for two hours with different concentrations of the peptide at the temperature of 37° C. After incubation, 20 μl were drawn from the wells of each dilution and seeded on solid medium, agar McConkey. The inoculum was evenly distributed on the agarized medium by means of a sterile disposable loop. After incubation for 24 h at the temperature of 37° C., counting of the bacterial colonies (CFU) was performed.

[4] = tested on: S. aureus ATCC 25923; assay: Broth-microdilution test and subsequent plating on agar, Gram-positive bacteria; type: cell-based, Staphylococcus aureus; conditions: meticillin-sensitive, 2 h contact at 37° C., CFU count after 24 h
Protocol: as §4, with “30 min,” for “30 min”
(§7) Several synthetic peptides were tested for their ability to inhibit bacterial growth. Fifty microliters of peptide at a concentration comprised between about 0.2 mM and about 50 mM were added to 96-well U-bottom plates containing phosphate buffer and one of the following bacteria: S. aureus ATCC 25923, meticillin-resistant S. aureus ATCC 43300. After 2 hour incubation at 37° C., bacteria were transferred on a solid medium. As a control, the bacterial cultures were cultured in the absence of peptide.
as §6, with “medium, Columbia” for “medium,”, “agar supplemented with 5% bovine red blood cells for Gram-positive bacteria.” for “agar McConkey.”, “24 hours” for “24 h”

[5] = tested on: meticillin-resistant S. aureus ATCC 43300; assay: as above; type: cell-based, Staphylococcus aureus; conditions: 2 h contact at 37° C., CFU count after 24 h
Protocol: as §4, with “30 min,” for “30 min”
as §7
as §6, with “medium, Columbia” for “medium,”, “agar supplemented with 5% bovine red blood cells for Gram-positive bacteria.” for “agar McConkey.”, “24 hours” for “24 h”

[6] = tested on: Pseudomonas aeruginosa ATCC 27853; type: cell-based
Protocol: as §4, §5, §6

[7] = tested on: Escherichia coli ATCC 25922; type: cell-based; conditions: for LD90 E. coli ATCC 25922: 2 h contact at 37° C., CFU count after 24 h
Protocol: as §4, §5, §6

## CC[C@H](C)[C@@H]1NC(=O)[C@H](CCCCN)NC(=O)[C@H](C)NC(=O)[C@@H](NC(=O)[C@H](CCCCN)NC(=O)[C@@H](N)Cc2c[nH]cn2)CSSC[C@@H](C(=O)N[C@@H](C)C(=O)O)NC(=O)[C@H](Cc2ccc(O)cc2)NC(=O)[C@H](CCCCN)NC(=O)[C@H](C(C)C)NC(=O)[C@H](Cc2c[nH]cn2)NC(=O)[C@H](C(C)C)NC(=O)CNC(=O)[C@H](CCCNC(=N)N)NC(=O)[C@H](Cc2c[nH]c3ccccc23)NC(=O)[C@H](CCCCN)NC1=O (relative stereo) [Peptide P2041, HIS*LYS*CYS*ALA*LYS*ILE*LYS*TRP*ARG*GLY*VAL*HIS*VAL*LYS*TYR*CYS*ALA]
[1]
  LD90 Malassezia pachydermatis: 0.85 µM
[2]
  LD90 Candida albicans: 1.42 µM
[3]
  LD90 S. maltophilia ATCC 13637: 2.67 µM
[4]
  LD90 S. aureus ATCC 25923: 1.42 µM
[4]; listed as 2041
  LD90 S. aureus ATCC 25923: 1.42 μM and 2.89 μg/ml
[5]
  LD90 MRSA ATCC 43300: 0.85 µM
[5]; listed as 2041
  LD90 MRSA ATCC 43300: 0.85 μM and 1.72 μg/ml
[6]; 2 h contact at 37° C., CFU count after 24 h
  LD90 P. aeruginosa ATCC 27853: 2.14 µM
[6]; ATCC 27853
  MBC P. aeruginosa ATCC 27853: 2.08 µg/mL (≈ 1.03 µM)
[7]
  LD90 E. coli ATCC 25922: 0.83 µM
[7]; listed as 2041
  LD90 E. coli ATCC 25922: 1.57 μg/ml and 0.83 μM
[7]; ATCC 25922
  MBC E. coli ATCC 25922: 3.05 µg/mL (≈ 1.51 µM)

From patent US10421782B2, “Cyclic cationic peptides with antimicrobial activity” (I.C.F. S.R.L., priority 2012, dated 2019)
